For 16 compounds, IC50 results are on record in patent US20240148821A1, “PHARMACEUTICAL USE OF CYCLIC PEPTIDE COMPOUND” (CHUGAI SEIYAKU KABUSHIKI KAISHA, priority 2021, published 2024).

The term IC50 denotes the concentration that inhibits the measured activity by half.

Numbered stars: 1 amine (or outer) side, 2 acyl side, 3 side chain; on linkers, the order of the positions; unused ones are H or OH. Bridge positions count the residues as written; N and C are the ends. Square brackets hold non-standard residues; d marks the D form. Peptide text beside a SMILES is read from it. * marks the point of attachment. hPhe(3-Cl-4-CF3) = N[C@@H](CCc1ccc(C(F)(F)F)c(Cl)c1)C(=O)O; hPhe(3-F,4-CF3) = N[C@@H](CCc1ccc(C(F)(F)F)c(F)c1)C(=O)O; NEtPhe(4-CF3) = CCN[C@@H](Cc1ccc(C(F)(F)F)cc1)C(=O)O; NMePhe(4-CF3) = CN[C@@H](Cc1ccc(C(F)(F)F)cc1)C(=O)O; X112 = O=C([C@H](CCOc1ccc(C(F)(F)F)cc1)N[*:1])[*:2]; X6 = O=C([C@H](CCc1ccc2c(c1)OC(F)(F)O2)N[*:1])[*:2]; X56 = O=C([C@H](CCc1cccc(C(F)(F)F)c1)N[*:1])[*:2]; 3Oxa8azabicyclo(3.2.1)octane = C1CC2COCC1N2*; NMePhe(4-Cl) = CN[C@@H](Cc1ccc(Cl)cc1)C(=O)O; NMePhe(4-Me) = CN[C@@H](Cc1ccc(C)cc1)C(=O)O; NMeNle(6-CHF2) = CN[C@@H](CCCCC(F)F)C(=O)O; NMedβ3hAla = C[C@H](CC(=O)[*:2])N(C)[*:1]; NMeAla(cPent) = CN[C@@H](CC1CCCC1)C(=O)O; NMeGly(cPent) = CN[C@H](C(=O)O)C1CCCC1; NMeCha = CN[C@@H](CC1CCCCC1)C(=O)O; NMehLeu = CN[C@@H](CCC(C)C)C(=O)O; Hyp = O=C(O)[C@@H]1C[C@@H](O)CN1; NMeChg = CN[C@H](C(=O)O)C1CCCCC1; NMeF = CN[C@@H](Cc1ccccc1)C(=O)O; NMeI = CC[C@H](C)[C@H](NC)C(=O)O; NMeD = CN[C@@H](CC(=O)O)C(=O)O; CH2CONHtBu = CC(C)(C)NC(=O)C*; NMeL = CN[C@@H](CC(C)C)C(=O)O; dNMeAbu = CC[C@@H](NC)C(=O)O; NMeV = CN[C@H](C(=O)O)C(C)C; d(β3hA) = C[C@@H](N)CC(=O)O; Azetidin(1-yl) = C1CN(*)C1; NMeS = CN[C@@H](CO)C(=O)O; NMeA = CN[C@@H](C)C(=O)O; NMeAib = CNC(C)(C)C(=O)O; Piperidide = C1CCN(*)CC1; dNMeA = CN[C@H](C)C(=O)O; Ac5c = NC1(C(=O)O)CCCC1; Aze = O=C(O)[C@@H]1CCN1; Isopentyl = CC(C)CC*; NEtG = CCNCC(=O)O; Sar = CNCC(=O)O; Propyl = CCC*

This assay addresses protein-protein interaction between Kras and SOS1 (biotin-tagged human Kras loaded with GDP, His-tagged human SOS1) (Homo sapiens (Human), UniProt P01116, G12D). The assay is described as follows: Protein-protein interaction inhibition between Kras and SOS1 (KrasG12D-SOS PPI) using AlphaScreen.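 Also: kras produced in E. coli, Ni-coupled donor beads and streptavidin acceptor beads, excitation 680 nm with emission detected at 520–620 nm via singlet oxygen transfer.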 Type of assay: biochemical. The following applies: AlphaScreen; biotin-tagged human Kras loaded with GDP, His-tagged human SOS1; read-out: KRAS G12D-SOS PPI IC50.
For the compound `CC[C@H](C)[C@@H]1NC(=O)[C@H](CC(C)C)N(C)C(=O)C[C@@H](C)NC(=O)[C@H](CC(C)C)N(C)C(=O)C2(CCCC2)NC(=O)[C@H](COCC(=O)NC(C)(C)C)N(C)C(=O)[C@H](CCc2ccc(C(F)(F)F)c(Cl)c2)NC(=O)CN(C)C(=O)[C@H](COCCC(C)C)N(C)C(=O)CN(C)C(=O)CN(C)C1=O` [Compound 1492] (cyclo([Ac5c][NMeL][d(β3hA)][NMeL]I[Sar][Sar][NMeS](Isopentyl)[Sar][hPhe(3-Cl-4-CF3)][NMeS](CH2CONHtBu))), the half-maximal inhibitory concentration (IC50) came out at 240 nM.
As for `CC[C@@H]1C(=O)NC2(CCCC2)C(=O)N(C)[C@@H](C2CCCC2)C(=O)N(C)[C@H](C(=O)N2CCCCC2)CC(=O)N(C)[C@@H](CC(C)C)C(=O)N[C@@H]([C@@H](C)CC)C(=O)N(C)CC(=O)N(C)CC(=O)N(C)[C@@H](CC2CCCCC2)C(=O)N(C)CC(=O)N[C@@H](CCc2ccc(C(F)(F)F)c(Cl)c2)C(=O)N1C` [Compound 1439] ([NMeL]I[Sar][Sar][NMeCha][Sar][hPhe(3-Cl-4-CF3)][dNMeAbu][Ac5c][NMeGly(cPent)][NMeD]-Piperidide; lactam N-11), the IC50 is 3.7 nM.
With `CCCOC[C@H]1C(=O)N(C)CC(=O)N[C@@H](CCc2ccc(C(F)(F)F)c(F)c2)C(=O)N2CCC[C@H]2C(=O)NC2(CCCC2)C(=O)N(C)[C@@H](C2CCCC2)C(=O)N(C)[C@H](C)CC(=O)N(C)[C@@H](CC(C)C)C(=O)N[C@@H]([C@@H](C)CC)C(=O)N(C)[C@@H](C)C(=O)N2CC[C@H]2C(=O)N1C` [Compound 776] (cyclo([Ac5c][NMeGly(cPent)][NMedβ3hAla][NMeL]I[NMeA][Aze][NMeS](Propyl)[Sar][hPhe(3-F,4-CF3)]P)) the figure was 7.3 nM; with `CC[C@H](C)[C@@H]1NC(=O)[C@H](CCCCC(F)F)N(C)C(=O)C[C@@H](C(=O)N2CCCCC2)N(C)C(=O)[C@H](C(C)C)N(C)C(=O)C2(CCCC2)NC(=O)[C@@H]2CCCN2C(=O)[C@H](CCc2ccc(C(F)(F)F)c(Cl)c2)NC(=O)CN(C)C(=O)[C@H](CC2CCCCC2)N(C)C(=O)[C@@H]2CCN2C(=O)[C@H](C)N(C)C1=O` [Compound 94] ([NMeNle(6-CHF2)]I[NMeA][Aze][NMeCha][Sar][hPhe(3-Cl-4-CF3)]P[Ac5c][NMeV][NMeD]-Piperidide; lactam N-11), 3.3 nM.
With `CC[C@H](C)[C@@H]1NC(=O)[C@H](CC(C)C)N(C)C(=O)C[C@@H](C)N(C)C(=O)[C@H](C2CCCC2)N(C)C(=O)C2(CCCC2)NC(=O)[C@@H]2CCCN2C(=O)[C@H](CCc2ccc(C(F)(F)F)c(F)c2)NC(=O)CN(C)C(=O)[C@H](CC2CCCCC2)N(C)C(=O)[C@@H]2CCN2C(=O)[C@H](C)N(C)C1=O` [Compound 49] (cyclo([Ac5c][NMeGly(cPent)][NMedβ3hAla][NMeL]I[NMeA][Aze][NMeCha][Sar][hPhe(3-F,4-CF3)]P)) the figure was 12 nM; with `CC[C@H](C)[C@@H]1NC(=O)[C@H](CC(C)C)N(C)C(=O)C[C@@H](C(=O)N2CCCCC2)N(C)C(=O)[C@H](C2CCCC2)N(C)C(=O)C2(CCCC2)NC(=O)[C@@H]2CCCN2C(=O)[C@H](CCc2ccc3c(c2)OC(F)(F)O3)NC(=O)CN(C)C(=O)[C@H](CC2CCCCC2)N(C)C(=O)[C@@H]2CCN2C(=O)[C@H](C)N(C)C1=O` [Compound 2074] ([NMeL]I[NMeA][Aze][NMeCha][Sar][X6]P[Ac5c][NMeGly(cPent)][NMeD]-Piperidide; lactam N-11 (inferred); C-terminus assumed), 2.7 nM.
With `CC[C@H](C)[C@@H]1NC(=O)[C@H](CC2CCCC2)N(C)C(=O)C[C@@H](C)NC(=O)[C@H](C(C)C)N(C)C(=O)C2(CCCC2)NC(=O)[C@@H]2CCCN2C(=O)[C@H](CCc2ccc(C(F)(F)F)c(Cl)c2)NC(=O)CN(C)C(=O)[C@H](CC2CCCCC2)N(C)C(=O)[C@@H]2CCN2C(=O)[C@H](C)N(C)C1=O` [Compound 8] (cyclo([Ac5c][NMeV][d(β3hA)][NMeAla(cPent)]I[NMeA][Aze][NMeCha][Sar][hPhe(3-Cl-4-CF3)]P)) the figure was 75 nM; with `CC[C@H](C)[C@@H]1NC(=O)[C@H](C)N(C)C(=O)C[C@@H](C)N(C)C(=O)[C@H](CC(C)C)NC(=O)C(C)(C)N(C)C(=O)[C@H](CC(C)C)NC(=O)[C@H](CCc2ccc(C(F)(F)F)c(Cl)c2)NC(=O)[C@@H](C)N(C)C(=O)[C@H](Cc2ccc(C(F)(F)F)cc2)N(C)C(=O)CN(C)C(=O)CN(C)C1=O` [Compound 1385] (cyclo(I[Sar][Sar][NMePhe(4-CF3)][dNMeA][hPhe(3-Cl-4-CF3)]L[NMeAib]L[NMedβ3hAla][NMeA])), 200 nM.
As for `CC[C@H](C)[C@@H]1NC(=O)[C@H](C)N(C)C(=O)C[C@@H](C)NC(=O)[C@H](CC(C)C)N(C)C(=O)[C@H](Cc2ccccc2)N(C)C(=O)[C@H](CC(C)C)NC(=O)[C@H](CCc2cccc(C(F)(F)F)c2)NC(=O)CN(C)C(=O)[C@H](Cc2ccc(Cl)cc2)N(C)C(=O)CN(C)C(=O)CN(C)C1=O` [Compound 2095] (cyclo(I[Sar][Sar][NMePhe(4-Cl)][Sar][X56]L[NMeF][NMeL][d(β3hA)][NMeA])), the IC50 is 240 nM.
Consider `CC[C@H](C)[C@@H]1NC(=O)[C@H](CC(C)C)N(C)C(=O)C[C@@H](C(=O)N2CCC2)N(C)C(=O)[C@H](C2CCCC2)N(C)C(=O)C2(CCCC2)NC(=O)[C@@H]2CCCN2C(=O)[C@H](CCc2ccc(C(F)(F)F)c(Cl)c2)NC(=O)CN(CC)C(=O)[C@H](CC2CCCCC2)N(C)C(=O)[C@@H]2CCN2C(=O)[C@H](C)N(C)C1=O` [Compound 726] ([NMeL]I[NMeA][Aze][NMeCha][NEtG][hPhe(3-Cl-4-CF3)]P[Ac5c][NMeGly(cPent)][NMeD]-{Azetidin(1-yl)}; lactam N-11), for which the IC50 is 1.3 nM.
The figure for `CC[C@H](C)[C@@H]1NC(=O)[C@H](C)N(C)C(=O)C[C@@H](C(=O)N2CCCCC2)N(C)C(=O)[C@H](C2CCCCC2)N(C)C(=O)C2(CCCC2)NC(=O)[C@@H]2CCCN2C(=O)[C@H](CCOc2ccc(C(F)(F)F)cc2)NC(=O)CN(C)C(=O)[C@H](CC2CCCCC2)N(C)C(=O)CN(C)C(=O)CN(C)C1=O` [Compound 2041, (3S,9S,18S,21S,25S,28S,34S)-28-cyclohexyl-9-(cyclohexylmethyl)-7,10,13,16,21,22,26,29-octamethyl-18-[(1S)-1-methylpropyl]-25-(piperidine-1-carbonyl)-3-[2-[4-(trifluoromethyl)phenoxy]ethyl]spiro[1,4,7,10,13,16,19,22,26,29,32-undecazabicyclo[32.3.0]heptatriacontane-31,1′-cyclopentane]-2,5,8,11,14,17,20,23,27,30,33-undecone] ([NMeA]I[Sar][Sar][NMeCha][Sar][X112]P[Ac5c][NMeChg][NMeD]-Piperidide; lactam N-11) is 110 nM; for `CCCOC[C@H]1C(=O)N(C)CC(=O)N[C@@H](CCc2ccc(C(F)(F)F)c(Cl)c2)C(=O)N2CCC[C@H]2C(=O)NC2(CCCC2)C(=O)N(C)[C@@H](C2CCCC2)C(=O)N(C)[C@H](C(=O)N2C3CCC2COC3)CC(=O)N(C)[C@@H](CCC(C)C)C(=O)N[C@@H]([C@@H](C)CC)C(=O)N(C)[C@@H](C)C(=O)N2CC[C@H]2C(=O)N1C` [Compound 1154] ([NMehLeu]I[NMeA][Aze][NMeS](Propyl)[Sar][hPhe(3-Cl-4-CF3)]P[Ac5c][NMeGly(cPent)][NMeD]-{3Oxa8azabicyclo(3.2.1)octane}; lactam N-11) it is 2.4 nM.
As for `CC[C@H](C)[C@@H]1NC(=O)[C@H](CC(C)C)N(C)C(=O)C[C@@H](C)N(C)C(=O)[C@H](C(C)C)N(C)C(=O)C2(CCCC2)NC(=O)[C@@H]2CCCN2C(=O)[C@H](CCc2ccc(C(F)(F)F)c(Cl)c2)NC(=O)CN(C)C(=O)[C@H](CC2CCCC2)N(C)C(=O)CN(C)C(=O)CN(C)C1=O` [Compound 88] (cyclo([Ac5c][NMeV][NMedβ3hAla][NMeL]I[Sar][Sar][NMeAla(cPent)][Sar][hPhe(3-Cl-4-CF3)]P)), the IC50 was 18 nM.
Turning to `CC[C@H](C)[C@@H]1NC(=O)[C@H](C2CCCC2)N(C)C(=O)C[C@@H](C(=O)N2CCCCC2)N(C)C(=O)[C@H](C(C)C)N(C)C(=O)C2(CCCC2)NC(=O)[C@@H]2CCCN2C(=O)[C@H](CCc2ccc(C(F)(F)F)c(Cl)c2)NC(=O)CN(C)C(=O)[C@H](CC2CCCCC2)N(C)C(=O)[C@@H]2CCN2C(=O)[C@H](C)N(C)C1=O` [Compound 225] ([NMeGly(cPent)]I[NMeA][Aze][NMeCha][Sar][hPhe(3-Cl-4-CF3)]P[Ac5c][NMeV][NMeD]-Piperidide; lactam N-11), the concentration for half-maximal inhibition (IC50) stood at 15 nM.
With `CC[C@H](C)[C@@H]1NC(=O)[C@H](C)N(C)C(=O)C[C@@H](C)N(C)C(=O)[C@H](CC(C)C)NC(=O)C(C)(C)N(C)C(=O)[C@H](CC(C)C)NC(=O)[C@H](CCc2ccc(C(F)(F)F)c(Cl)c2)NC(=O)[C@@H](C)N(C)C(=O)[C@H](Cc2ccc(C)cc2)N(C)C(=O)CN(C)C(=O)CN(C)C1=O` [Compound 1381] (cyclo(I[Sar][Sar][NMePhe(4-Me)][dNMeA][hPhe(3-Cl-4-CF3)]L[NMeAib]L[NMedβ3hAla][NMeA])) the figure was 150 nM.
`CCO[C@@H]1C[C@H]2C(=O)NC3(CCCC3)C(=O)N(C)[C@@H]([C@@H](C)CC)C(=O)N(C)[C@H](C)CC(=O)N(C)[C@@H](CC(C)C)C(=O)N[C@@H]([C@@H](C)CC)C(=O)N[C@@H](C)C(=O)N3CC[C@H]3C(=O)N(CC)[C@@H](Cc3ccc(C(F)(F)F)cc3)C(=O)N(C)CC(=O)N[C@@H](CCc3ccc(C(F)(F)F)c(Cl)c3)C(=O)N2C1` [Compound 673] (cyclo(A[Aze][NEtPhe(4-CF3)][Sar][hPhe(3-Cl-4-CF3)][Hyp](Et)[Ac5c][NMeI][NMedβ3hAla][NMeL]I)): the IC50 was found to be 11 nM.
